How the values were obtained:
Assay in all cases: HDAC catalytic activity, fluorogenic substrate
Assay type in all cases: biochemical
Conditions in all cases: 10-dose, 3-fold serial dilution starting at 100 μM, duplicates
HDAC6 = target: T1, HDAC6 (Homo sapiens, UniProt Q9UBN7)
T1 sequence (Q9UBN7 1-1215): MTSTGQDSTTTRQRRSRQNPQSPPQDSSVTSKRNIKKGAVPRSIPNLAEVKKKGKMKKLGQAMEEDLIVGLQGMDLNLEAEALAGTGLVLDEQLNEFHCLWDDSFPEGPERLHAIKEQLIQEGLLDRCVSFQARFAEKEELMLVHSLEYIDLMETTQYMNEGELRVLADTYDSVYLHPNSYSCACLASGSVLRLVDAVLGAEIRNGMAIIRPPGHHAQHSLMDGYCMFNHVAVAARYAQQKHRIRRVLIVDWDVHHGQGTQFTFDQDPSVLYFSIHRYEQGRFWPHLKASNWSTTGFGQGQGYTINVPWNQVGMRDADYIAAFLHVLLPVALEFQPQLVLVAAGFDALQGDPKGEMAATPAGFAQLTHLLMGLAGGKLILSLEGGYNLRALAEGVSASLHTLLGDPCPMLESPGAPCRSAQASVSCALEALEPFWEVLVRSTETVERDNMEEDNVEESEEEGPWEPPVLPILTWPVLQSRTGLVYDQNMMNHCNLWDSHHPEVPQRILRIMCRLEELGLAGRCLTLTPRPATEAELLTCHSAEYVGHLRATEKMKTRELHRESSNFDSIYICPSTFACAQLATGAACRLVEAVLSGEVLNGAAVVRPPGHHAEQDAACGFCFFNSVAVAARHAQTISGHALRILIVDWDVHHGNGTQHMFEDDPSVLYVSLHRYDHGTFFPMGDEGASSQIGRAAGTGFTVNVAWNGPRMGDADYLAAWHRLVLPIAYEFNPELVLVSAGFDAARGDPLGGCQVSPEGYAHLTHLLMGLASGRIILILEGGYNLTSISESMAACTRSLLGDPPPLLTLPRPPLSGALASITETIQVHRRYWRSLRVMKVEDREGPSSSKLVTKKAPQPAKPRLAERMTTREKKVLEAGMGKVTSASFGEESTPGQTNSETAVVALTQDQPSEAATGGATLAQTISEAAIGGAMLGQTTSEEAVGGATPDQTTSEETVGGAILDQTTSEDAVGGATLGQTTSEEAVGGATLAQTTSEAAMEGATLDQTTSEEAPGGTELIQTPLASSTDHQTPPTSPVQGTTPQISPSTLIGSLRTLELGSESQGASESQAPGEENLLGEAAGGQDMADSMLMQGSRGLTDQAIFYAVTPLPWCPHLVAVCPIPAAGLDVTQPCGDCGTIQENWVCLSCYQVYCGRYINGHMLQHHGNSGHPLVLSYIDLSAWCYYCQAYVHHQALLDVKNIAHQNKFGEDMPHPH
Procedure: (§1) The compound (racemate) was resuspended in 100 mM DMSO and tested in a 10-dose IC50 with 3-fold serial dilution starting at 100 μM against HDACs 1-9, and 11. As reference compounds, Trichostatin A (TSA) and TMP269 were tested in a 10-dose IC50 with 3-fold serial dilution starting at 10 μM or 1 μM.
(§2) 10 μM Fluorogenic peptide from p53 residues 379-382 (RHKK(Ac)AMC) was used for the substrate for HDAC 1, 2, 3, and 6, 50 μM Fluorogenic HDAC Class2a Substrate (Trifluoroacetyl Lysine) was used for the substrate for HDAC 4, 5, 7, 9, and 11, 100 μM Fluorogenic peptide from p53 residues 379-382 (RHK(Ac)K(Ac)AMC) was used for the substrate for HDAC8.
(§3) IC50 values were calculated using the GraphPad Prism 4 program based on a sigmoidal dose-response equation and the blank (DMSO) value concentration was entered as 1.00E-12 M for curve fitting.

HDAC7 = target: T2, HDAC7 (Homo sapiens, UniProt Q8WUI4)
T2 sequence (Q8WUI4 1-952): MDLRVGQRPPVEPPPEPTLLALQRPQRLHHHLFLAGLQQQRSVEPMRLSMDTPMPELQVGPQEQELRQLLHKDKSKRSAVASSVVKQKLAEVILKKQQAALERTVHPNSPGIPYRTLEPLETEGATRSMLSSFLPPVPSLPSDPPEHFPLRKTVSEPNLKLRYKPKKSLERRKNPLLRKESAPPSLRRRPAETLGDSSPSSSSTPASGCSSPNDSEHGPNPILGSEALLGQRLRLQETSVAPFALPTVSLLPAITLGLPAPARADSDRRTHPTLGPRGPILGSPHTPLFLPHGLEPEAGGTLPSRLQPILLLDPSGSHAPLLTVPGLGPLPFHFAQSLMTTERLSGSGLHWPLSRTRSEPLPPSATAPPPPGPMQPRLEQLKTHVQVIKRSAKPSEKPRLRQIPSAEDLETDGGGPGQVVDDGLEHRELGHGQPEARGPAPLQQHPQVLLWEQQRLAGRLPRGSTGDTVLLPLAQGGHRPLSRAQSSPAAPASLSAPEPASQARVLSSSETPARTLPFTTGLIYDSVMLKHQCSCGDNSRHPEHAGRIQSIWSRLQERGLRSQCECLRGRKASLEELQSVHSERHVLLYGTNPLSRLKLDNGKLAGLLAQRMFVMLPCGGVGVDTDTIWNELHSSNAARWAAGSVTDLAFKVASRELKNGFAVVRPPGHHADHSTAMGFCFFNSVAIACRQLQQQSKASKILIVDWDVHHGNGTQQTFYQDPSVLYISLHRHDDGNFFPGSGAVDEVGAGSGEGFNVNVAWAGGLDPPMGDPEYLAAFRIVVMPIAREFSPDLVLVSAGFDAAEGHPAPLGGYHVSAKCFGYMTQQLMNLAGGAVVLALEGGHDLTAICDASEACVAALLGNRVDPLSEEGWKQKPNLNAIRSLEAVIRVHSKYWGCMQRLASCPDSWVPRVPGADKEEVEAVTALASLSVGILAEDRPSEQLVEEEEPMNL
Procedure: as §1, §2, §3

HDAC8 = target: T3, HDAC8 (Homo sapiens, UniProt Q9BY41)
T3 sequence (Q9BY41 1-377): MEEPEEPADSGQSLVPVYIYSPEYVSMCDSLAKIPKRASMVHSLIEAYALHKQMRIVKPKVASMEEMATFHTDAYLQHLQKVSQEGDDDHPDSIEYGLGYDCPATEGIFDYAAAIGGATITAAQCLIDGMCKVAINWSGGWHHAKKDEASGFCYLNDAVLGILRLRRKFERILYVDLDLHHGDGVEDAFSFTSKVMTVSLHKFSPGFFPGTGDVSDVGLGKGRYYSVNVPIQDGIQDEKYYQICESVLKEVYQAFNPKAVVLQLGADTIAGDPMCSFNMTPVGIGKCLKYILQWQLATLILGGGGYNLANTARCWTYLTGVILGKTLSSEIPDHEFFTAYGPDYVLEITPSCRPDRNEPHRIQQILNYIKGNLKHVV
Procedure: as §1, §2, §3

HDAC9 = HDAC9 (Homo sapiens, UniProt Q9UKV0)
HDAC9, sequence (Q9UKV0 whole entry): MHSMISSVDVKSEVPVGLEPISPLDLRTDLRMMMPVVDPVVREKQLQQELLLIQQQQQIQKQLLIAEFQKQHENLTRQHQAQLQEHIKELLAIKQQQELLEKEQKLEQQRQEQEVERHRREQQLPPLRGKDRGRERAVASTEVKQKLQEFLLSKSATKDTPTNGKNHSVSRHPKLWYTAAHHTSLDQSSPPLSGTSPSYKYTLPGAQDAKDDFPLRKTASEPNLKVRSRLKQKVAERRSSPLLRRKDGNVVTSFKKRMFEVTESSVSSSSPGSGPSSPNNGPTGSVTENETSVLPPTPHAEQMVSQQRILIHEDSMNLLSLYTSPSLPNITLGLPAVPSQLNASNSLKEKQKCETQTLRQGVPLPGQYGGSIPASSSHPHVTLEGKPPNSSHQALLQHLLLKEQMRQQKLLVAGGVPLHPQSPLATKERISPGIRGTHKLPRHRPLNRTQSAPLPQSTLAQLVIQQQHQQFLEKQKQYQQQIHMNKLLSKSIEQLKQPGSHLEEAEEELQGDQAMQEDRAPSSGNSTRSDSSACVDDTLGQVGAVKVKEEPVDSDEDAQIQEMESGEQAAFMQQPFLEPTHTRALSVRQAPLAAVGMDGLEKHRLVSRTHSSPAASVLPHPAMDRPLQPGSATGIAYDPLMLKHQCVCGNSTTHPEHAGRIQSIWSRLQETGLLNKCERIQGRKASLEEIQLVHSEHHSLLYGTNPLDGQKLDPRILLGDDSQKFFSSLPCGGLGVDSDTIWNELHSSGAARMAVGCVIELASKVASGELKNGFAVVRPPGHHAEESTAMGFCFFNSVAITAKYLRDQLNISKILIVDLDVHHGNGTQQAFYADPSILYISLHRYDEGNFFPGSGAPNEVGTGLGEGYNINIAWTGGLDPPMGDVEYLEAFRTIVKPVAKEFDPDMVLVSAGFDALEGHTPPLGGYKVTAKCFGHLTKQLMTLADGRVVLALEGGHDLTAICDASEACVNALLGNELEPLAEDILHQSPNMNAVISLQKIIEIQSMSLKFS
Procedure: as §1, §2, §3

Inhibitory effect on HDAC6 catalytic activity (HDAC6): did not show any inhibitory effect
Inhibitory effect on HDAC7 catalytic activity (HDAC7): did not show any inhibitory effect
Inhibitory effect on HDAC8 catalytic activity (HDAC8): did not show any inhibitory effect
Inhibitory effect on HDAC9 catalytic activity (HDAC9): did not show any inhibitory effect
SMILES: CC1CCC(C(=O)O)CN1C(=O)Cc1ccc(F)cc1Cl (racemic) [BnH12001, 1-(2-(2-chloro-4-fluorophenyl)acetyl)-6-methylpiperidine-3-carboxylic acid]

From patent publication US20250188032A1, “NITROGEN-CONTAINING HETEROCYCLIC COMPOUNDS AND USES THEREOF” (BNH RESEARCH CO., LTD., priority 2022, published 2025)
